Experimental data published in patent publication US20220054588A1, “USE OF SAP FOR THE TREATMENT OF EUROTIOMYCETES FUNGI INFECTIONS” (HUMANITAS MIRASOLE S.P.A., priority 2018, published 2022).

Tested on: membrane attack complex (MAC; C5b-C9) on A. fumigatus conidia
Assay: FACS analysis of MAC (C5b-C9) deposition on A. fumigatus conidia in human sera
Type: biochemical
Procedure: FIG. 12 depicts the therapeutic efficacy of SAP in treatment of invasive aspergillosis. a) b) c) survival of transiently immunosuppressed wt mice after injection with the indicated doses of AF conidia. The curve of untreated mice (n=3) with cyclophosphamide is also shown (a). Human SAP (4 mg/Kg) was injected at 2 h and 24 h after infection. a) AF 5.10^7, n=17; AF 5.10^7+SAP, n=15; b) AF 1.10^7, n=7; AF 1.10^7+SAP, n=8; c) AF 5.10^6, n=8; AF 5.10^6+SAP, n=10.***, P<0.005 SAP-treated vs. saline (Mantel-Cox test). One-way ANOVA, P<0.0001. d) lung CFU in mice treated with cyclophosphamide and infected with 1.10^7 AF conidia.*, P<0.05 (Mann-Whitney test). e) quantitative analysis of AF viability performed using a resazurin-based assay. Plasma (30%) from wt and Apcs^−/− mice were incubated (1 min) with 1.5×10^5 AF conidia pre-opsonized or not with SAP. Results are mean±SD of red fluorescence (excitation/emission 535/580-610 nm) intensity of the resazurin once reduced to resorufin within viable cells. Effect of Posaconazole (POC; 1 μM) exposure is also shown. Results are mean±SEM relative to the condition without serum (grey symbols) of two experiments performed with n=10 mice/group. […] AF viability assay performed in sera depleted from complement components. Figure summarizes one experiment out of 5 also conducted with serum 10%. Mean±SD.*, P<0.05; **, P<0.01 (unpaired t-test). g) and h) FACS analysis of MAC deposition on AF conidia (1×10^7) in presence of sera depleted from complement components (e) and the effect of SAP (f). Mean±SEM of 2 experiments performed out of 4. e, f,*, P<0.05;**, P<0.01;***, P<0.005;****, P<0.001; (Mann-Whitney test).
Complement deposition on Aspergillus fumigatus. A volume of 10 μl PBS, pH 7.4, containing 1×10^7 conidia eventually opsonized with murine SAP (100 μg/ml per 1×10^9 conidia, 1 h at r.t.) was incubated (37° C.) in round bottom wells of Corning® 96-well polypropylene microplates for the indicated time points with 20 μl mouse plasma-heparin or 20 μl human NS and complement depleted sera (diluted in PBS at 10% and 30%). Complement deposition was blocked by addition of EDTA (10 mM final concentration) and by cooling in ice. After centrifugation (2000 rpm, 10 min at 4° C.), when indicated supernatant was collected for C5a measurement by ELISA. […] Conidia were then incubated (1 h, at 4° C.) with Alexa Fluor® 488 and 647-conjugated species-specific cross-adsorbed detection antibodies (2 μg/ml; ThermoFisher Scientific-Molecular Probes) and analysed by BD FACS Canto™ II Flow Cytometer (BD Biosciences) using forward and side scatter parameters to gate on at least 8,000 conidia. […] Results were expressed as frequency of conidia showing fluorescence compared with irrelevant controls and as geometric conidia MFI.

Measured: MAC formation on conidia

human native SAP: Native SAP from human serum purchased by Merck-Millipore; Serum Amyloid P component, SEQ ID NO: 1
enhanced: FB-depleted serum | FH-depleted serum | MBL-depleted serum | normal serum, 1 min and 30 min
